Experimental data reported in PubChem BioAssay AID1963420 (Molecular Pharmacology Branch, DTP, NCI, 2024).

Tested on: 494315-158-R-J1-PDC complex spheroid growth, percent test/control
Assay: Anticancer human tumor 494315-158-R-J1-PDC patient-derived soft tissue sarcoma cell line growth inhibition [Asc]
Details: for IC50: curve of first compound; for viability, T/C: stronger effect = lower value; active means viability on the fitted dose curve at most 10% of control; inactive means the rest
In short: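 Tumor cells were grown as multicellular spheroids with stromal HUVEC and mesenchymal stem cells and treated singly or in combination. Concentrations fell in half-log steps from the clinical Cmax, or from 10 microM where none was known.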

[1] = second compound 0.01 µM, first compound 0.00949 µM
[2] = second compound 0.01 µM, first compound 0.03 µM
[3] = second compound 0.01 µM, first compound 0.0949 µM
[4] = second compound 0.01 µM, first compound 0.3 µM
[5] = second compound 0.01 µM, first compound 0.949 µM
[6] = second compound 0.01 µM, first compound 3 µM
[7] = second compound 0.0316 µM, first compound 0.00949 µM
[8] = second compound 0.0316 µM, first compound 0.03 µM
[9] = second compound 0.0316 µM, first compound 0.0949 µM
[10] = second compound 0.0316 µM, first compound 0.3 µM
[11] = second compound 0.0316 µM, first compound 0.949 µM
[12] = second compound 0.0316 µM, first compound 3 µM
[13] = second compound 0.1 µM, first compound 0.00949 µM
[14] = second compound 0.1 µM, first compound 0.03 µM
[15] = second compound 0.1 µM, first compound 0.0949 µM
[16] = second compound 0.1 µM, first compound 0.3 µM
[17] = second compound 0.1 µM, first compound 0.949 µM
[18] = second compound 0.1 µM, first compound 3 µM
[19] = second compound 0.316 µM, first compound 0.00949 µM
[20] = second compound 0.316 µM, first compound 0.03 µM
[21] = second compound 0.316 µM, first compound 0.0949 µM
[22] = second compound 0.316 µM, first compound 0.3 µM
[23] = second compound 0.316 µM, first compound 0.949 µM
[24] = second compound 0.316 µM, first compound 3 µM
[25] = second compound 1 µM, first compound 0.00949 µM
[26] = second compound 1 µM, first compound 0.03 µM
[27] = second compound 1 µM, first compound 0.0949 µM
[28] = second compound 1 µM, first compound 0.3 µM
[29] = second compound 1 µM, first compound 0.949 µM
[30] = second compound 1 µM, first compound 3 µM
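Further: compound exposure lasted seven days after spheroids formed for three days.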

C=CC(=O)N1CCN(c2nc(=O)n(-c3c(C)ccnc3C(C)C)c3nc(-c4c(O)cccc4F)c(F)cc23)C(C)C1 (stereo not given) + CNC(C)C(=O)NC1CN(S(=O)(=O)c2cccc(S(=O)(=O)N3CCC4CCC(C(=O)NC(c5ccccc5)c5ccccc5)N4C(=O)C(NC(=O)C(C)NC)C3)c2)CCC2CCC(C(=O)NC(c3ccccc3)c3ccccc3)N2C1=O
inactive: viability, T/C (second compound 0.01 µM, first compound 0.0316 µM) 72.5% | viability, T/C (second compound 0.01 µM, first compound 0.1 µM) 70.5% | viability, T/C (second compound 0.01 µM, first compound 0.316 µM) 74.1% | viability, T/C (second compound 0.01 µM, first compound 1 µM) 69.5% | viability, T/C (second compound 0.01 µM, first compound 3.16 µM) 78.4% | viability, T/C (second compound 0.01 µM, first compound 10 µM) 57.8% | viability, T/C (second compound 0.0316 µM, first compound 0.0316 µM) 58.2% | viability, T/C (second compound 0.0316 µM, first compound 0.1 µM) 60.8% | viability, T/C (second compound 0.0316 µM, first compound 0.316 µM) 57.6% | viability, T/C (second compound 0.0316 µM, first compound 1 µM) 73.5% | viability, T/C (second compound 0.0316 µM, first compound 3.16 µM) 59.5% | viability, T/C (second compound 0.0316 µM, first compound 10 µM) 45.2% | viability, T/C (second compound 0.1 µM, first compound 0.0316 µM) 53.2% | viability, T/C (second compound 0.1 µM, first compound 0.1 µM) 54% | viability, T/C (second compound 0.1 µM, first compound 0.316 µM) 62.1% | viability, T/C (second compound 0.1 µM, first compound 1 µM) 55.4% | viability, T/C (second compound 0.1 µM, first compound 3.16 µM) 60.3% | viability, T/C (second compound 0.1 µM, first compound 10 µM) 42.5% | viability, T/C (second compound 0.316 µM, first compound 0.0316 µM) 49% | viability, T/C (second compound 0.316 µM, first compound 0.1 µM) 50.1% | viability, T/C (second compound 0.316 µM, first compound 0.316 µM) 46.2% | viability, T/C (second compound 0.316 µM, first compound 1 µM) 45.8% | viability, T/C (second compound 0.316 µM, first compound 3.16 µM) 51.5% | viability, T/C (second compound 0.316 µM, first compound 10 µM) 42.2% | viability, T/C (second compound 1 µM, first compound 0.0316 µM) 45.2% | viability, T/C (second compound 1 µM, first compound 0.1 µM) 49.7% | viability, T/C (second compound 1 µM, first compound 0.316 µM) 44.9% | viability, T/C (second compound 1 µM, first compound 1 µM) 35.3% | viability, T/C (second compound 1 µM, first compound 3.16 µM) 38.8% | viability, T/C (second compound 1 µM, first compound 10 µM) 40.9%
< 31.6 nM: IC50 (second compound 0.316 µM) | IC50 (second compound 1 µM)
> 10000 nM: IC50 (second compound 0.01 µM) | IC50 (second compound 0.0316 µM) | IC50 (second compound 0.1 µM)

CCN1C(C(=O)NC23CCC(C(=O)O)(CC2)CC3)C(c2cccc(Cl)c2F)C2(C(=O)Nc3cc(Cl)ccc32)C12CCCCC2 (stereo not given) + CNC(C)C(=O)NC1CN(S(=O)(=O)c2cccc(S(=O)(=O)N3CCC4CCC(C(=O)NC(c5ccccc5)c5ccccc5)N4C(=O)C(NC(=O)C(C)NC)C3)c2)CCC2CCC(C(=O)NC(c3ccccc3)c3ccccc3)N2C1=O
44.6 nM: IC50 (second compound 0.316 µM)
> 3000 nM: IC50 (second compound 0.01 µM) | IC50 (second compound 0.0316 µM)
inactive: viability, T/C [1] 66.2% | viability, T/C [2] 77.9% | viability, T/C [3] 66.8% | viability, T/C [4] 73.7% | viability, T/C [5] 67.5% | viability, T/C [6] 57.8% | viability, T/C [7] 57.3% | viability, T/C [8] 62.8% | viability, T/C [9] 61.5% | viability, T/C [10] 71% | viability, T/C [11] 60.6% | viability, T/C [12] 51.4% | viability, T/C [13] 51.4% | viability, T/C [14] 53.4% | viability, T/C [15] 56.5% | viability, T/C [16] 52% | viability, T/C [17] 47.1% | viability, T/C [18] 39.3% | viability, T/C [19] 53.9% | viability, T/C [20] 55.3% | viability, T/C [21] 49.8% | viability, T/C [22] 39.5% | viability, T/C [23] 41% | viability, T/C [24] 45.4% | viability, T/C [25] 39.6% | viability, T/C [26] 45.6% | viability, T/C [27] 44.5% | viability, T/C [28] 38.7% | viability, T/C [29] 35.7% | viability, T/C [30] 33%
539 nM: IC50 (second compound 0.1 µM)
< 9.49 nM: IC50 (second compound 1 µM)

Cc1nc(N2CCC3(CC2)COC(C)C3N)c(CO)nc1Sc1ccnc(N)c1Cl (stereo not given) + CNC(C)C(=O)NC1CN(S(=O)(=O)c2cccc(S(=O)(=O)N3CCC4CCC(C(=O)NC(c5ccccc5)c5ccccc5)N4C(=O)C(NC(=O)C(C)NC)C3)c2)CCC2CCC(C(=O)NC(c3ccccc3)c3ccccc3)N2C1=O
inactive: viability, T/C [1] 72.2% | viability, T/C [2] 59.6% | viability, T/C [3] 64.1% | viability, T/C [4] 60.8% | viability, T/C [5] 62.7% | viability, T/C [6] 52.1% | viability, T/C [7] 60.7% | viability, T/C [8] 69.7% | viability, T/C [9] 64.3% | viability, T/C [10] 55.6% | viability, T/C [11] 60.8% | viability, T/C [12] 51% | viability, T/C [13] 59.7% | viability, T/C [14] 55.6% | viability, T/C [15] 50.6% | viability, T/C [16] 49.1% | viability, T/C [17] 59.1% | viability, T/C [18] 43.7% | viability, T/C [19] 48.3% | viability, T/C [20] 48.6% | viability, T/C [21] 47.2% | viability, T/C [22] 37.1% | viability, T/C [23] 42.8% | viability, T/C [24] 49.5% | viability, T/C [25] 38.7% | viability, T/C [26] 44.2% | viability, T/C [27] 44.3% | viability, T/C [28] 36.8% | viability, T/C [29] 40% | viability, T/C [30] 39.2%
941 nM: IC50 (second compound 0.1 µM)
> 3000 nM: IC50 (second compound 0.01 µM) | IC50 (second compound 0.0316 µM)
< 9.49 nM: IC50 (second compound 0.316 µM) | IC50 (second compound 1 µM)
